According to patent US6972296B2, “Carboxylic acid derivatives that inhibit the binding of integrins to their receptors” (Encysive Pharmaceuticals Inc., priority 1999, dated 2005):

Each compound was assayed against T1, α4β1 integrin (Homo sapiens, UniProt P05556+P13612) (assay: Adhesion of calcein-labeled Ramos cells to CS1 (fibronectin) peptide conjugated ovalbumin). Conditions: Table 2; Ramos cell adhesion to CS1 conjugated ovalbumin, 30 minutes at 37° C.
T1 construct: endogenous in cells; host or cells: Ramos cells
T1 sequence (P13612 34-1032): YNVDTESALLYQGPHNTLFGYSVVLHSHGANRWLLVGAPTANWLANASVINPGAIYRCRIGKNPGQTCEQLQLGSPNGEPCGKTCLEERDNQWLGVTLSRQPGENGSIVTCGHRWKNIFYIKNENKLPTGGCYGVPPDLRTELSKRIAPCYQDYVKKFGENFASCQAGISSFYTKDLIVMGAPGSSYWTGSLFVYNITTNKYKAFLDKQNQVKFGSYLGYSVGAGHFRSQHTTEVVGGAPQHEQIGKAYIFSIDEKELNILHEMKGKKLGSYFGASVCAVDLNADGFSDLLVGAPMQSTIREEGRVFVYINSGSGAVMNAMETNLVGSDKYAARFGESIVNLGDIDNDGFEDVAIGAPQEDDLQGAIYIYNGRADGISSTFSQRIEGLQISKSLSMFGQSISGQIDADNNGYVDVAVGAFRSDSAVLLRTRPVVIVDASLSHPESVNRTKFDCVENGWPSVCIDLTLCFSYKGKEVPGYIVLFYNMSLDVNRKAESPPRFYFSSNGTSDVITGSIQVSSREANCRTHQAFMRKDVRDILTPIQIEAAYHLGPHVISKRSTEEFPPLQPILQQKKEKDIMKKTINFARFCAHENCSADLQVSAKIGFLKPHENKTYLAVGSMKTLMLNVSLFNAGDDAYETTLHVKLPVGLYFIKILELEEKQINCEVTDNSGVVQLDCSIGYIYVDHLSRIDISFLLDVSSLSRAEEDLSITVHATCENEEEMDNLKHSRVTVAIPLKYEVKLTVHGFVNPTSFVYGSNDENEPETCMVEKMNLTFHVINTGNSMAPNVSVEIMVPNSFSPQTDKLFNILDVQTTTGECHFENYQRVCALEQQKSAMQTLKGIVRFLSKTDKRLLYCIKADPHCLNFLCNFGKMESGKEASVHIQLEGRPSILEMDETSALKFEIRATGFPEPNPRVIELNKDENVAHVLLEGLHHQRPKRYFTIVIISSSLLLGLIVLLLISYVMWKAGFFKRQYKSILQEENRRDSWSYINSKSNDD
T1 sequence (P05556 21-798): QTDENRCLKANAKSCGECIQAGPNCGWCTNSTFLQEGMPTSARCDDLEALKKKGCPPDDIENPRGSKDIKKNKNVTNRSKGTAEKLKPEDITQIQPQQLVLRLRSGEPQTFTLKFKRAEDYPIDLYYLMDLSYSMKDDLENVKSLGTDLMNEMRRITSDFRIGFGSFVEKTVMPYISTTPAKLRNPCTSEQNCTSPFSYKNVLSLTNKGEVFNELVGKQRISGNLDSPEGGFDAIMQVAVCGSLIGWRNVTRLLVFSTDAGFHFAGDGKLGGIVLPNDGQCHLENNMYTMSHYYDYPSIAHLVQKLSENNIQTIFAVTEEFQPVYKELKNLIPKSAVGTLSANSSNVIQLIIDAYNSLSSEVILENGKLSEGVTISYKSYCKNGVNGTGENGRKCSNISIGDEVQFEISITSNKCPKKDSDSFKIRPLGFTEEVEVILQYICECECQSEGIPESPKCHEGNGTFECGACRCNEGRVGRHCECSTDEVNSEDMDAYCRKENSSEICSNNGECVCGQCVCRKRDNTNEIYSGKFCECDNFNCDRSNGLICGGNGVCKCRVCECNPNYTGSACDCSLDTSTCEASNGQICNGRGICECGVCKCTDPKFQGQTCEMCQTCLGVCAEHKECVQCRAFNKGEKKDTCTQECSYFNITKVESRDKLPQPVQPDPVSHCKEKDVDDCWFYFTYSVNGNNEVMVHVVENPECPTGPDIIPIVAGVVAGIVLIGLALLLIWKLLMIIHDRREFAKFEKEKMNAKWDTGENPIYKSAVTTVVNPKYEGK
Format: cell-based
How it was run: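 Plates bearing CS1 fibronectin peptide coupled to ovalbumin (0.5 μg/ml coat, 3% BSA block) received calcein-labelled Ramos cells plus compound (100 μM stated) for 30 min at 37 °C. Buffer was TBS pH 7.5 with 1 mM Mg2+, Ca2+, Mn2+; bound cells quantified by fluorescence after lysis; […].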
Compound `O=C(O)C[C@H](NC(=O)N[C@H]1CCN(Cc2cccs2)C1=O)c1ccc2c(c1)OCO2` [(3S)-3-(1,3-benzodioxol-5-yl)-3-[({[(3S)-2-oxo-1-(2-thienylmethyl)tetrahydro-1H-pyrrol-3-yl]amino}carbonyl)amino]propanoic acid] has an IC50 of 15000 nM.

Same assay, conditions: Table 3; Ramos cell adhesion to CS1 conjugated ovalbumin, 30 minutes at 37° C.
`Cc1ccc([C@H](CC(=O)O)NC(=O)Nc2c(O)ccn(Cc3ccccc3F)c2=O)cc1` [(3S)-3-{[({1-[(2-fluorophenyl)methyl]-4-hydroxy-2-oxo-1,2-dihydro-3-pyridinyl}amino)carbonyl]amino}-3-(4-methylphenyl)propanoic acid] gave an IC50 of 30 nM. In the case of `O=C(O)C[C@H](NC(=O)Nc1c(O)ccn(Cc2ccccc2Cl)c1=O)c1ccc(F)cc1`, the IC50 is reported as 30 nM. Compound `Cc1ccc([C@H](CC(=O)O)NC(=O)Nc2c(C)ccn(Cc3c(Cl)cccc3Cl)c2=O)cc1` has an IC50 of 20 nM. Work on `Cc1ccc([C@H](CC(=O)O)NC(=O)Nc2c(N)cc(C)n(Cc3ccccc3Cl)c2=O)cc1` [(3S)-3-{[({4-amino-1-[(2-chlorophenyl)methyl]-6-methyl-2-oxo-1,2-dihydro-3-pyridinyl}amino)carbonyl]amino}-3-(4-methylphenyl)propanoic acid] yielded an IC50 of 10 nM. For `Cc1ccc([C@H](CC(=O)O)NC(=O)Nc2c(NC(C)(C)C)ccn(Cc3ccccc3Cl)c2=O)cc1` [(3S)-3-{[({1-[(2-chlorophenyl)methyl]-4-[(1,1-dimethylethyl)amino]-2-oxo-1,2-dihydro-3-pyridinyl}amino)carbonyl]amino}-3-(4-methylphenyl)propanoic acid], the IC50 was 3 nM. `Cc1ccc([C@H](CC(=O)O)NC(=O)Nc2c(NCc3ccccn3)ccn(Cc3ccccc3Cl)c2=O)cc1` showed an IC50 of 15 nM. In the case of `CCc1ccn(Cc2ccccc2Cl)c(=O)c1NC(=O)N[C@@H](CC(=O)O)c1ccc(C)cc1` [(3S)-3-{[({1-[(2-chlorophenyl)methyl]-4-ethyl-2-oxo-1,2-dihydro-3-pyridinyl}amino)carbonyl]amino}-3-(4-methylphenyl)propanoic acid], the IC50 is reported as 10 nM.

Same assay, conditions: Table 4; Ramos cell adhesion to CS1 conjugated ovalbumin, 30 minutes at 37° C.
Compound `O=C(O)C[C@H](NC(=O)Nc1cccn(CCc2cccs2)c1=O)c1ccc2c(c1)OCO2` has an IC50 of 15000 nM. `Cc1ccc([C@H](CC(=O)O)NC(=O)Nc2cccn(Cc3ccc(Cl)cc3Br)c2=O)cc1` was tested, and the IC50 was 1000 nM. `Cc1ccc([C@H](CC(=O)O)NC(=O)Nc2cccn(Cc3cc([N+](=O)[O-])ccc3Br)c2=O)cc1` gave an IC50 of 2000 nM. `Cc1ccc(Cn2cccc(NC(=O)N[C@@H](CC(=O)O)c3ccc4c(c3)OCO4)c2=O)cc1` was tested, and the IC50 was 1000 nM. `Cc1ccc([C@H](CC(=O)O)NC(=O)Nc2cccn(Cc3cc(Cl)ccc3F)c2=O)cc1` gave an IC50 of 2500 nM. `O=C(O)C[C@H](NC(=O)Nc1cccn(Cc2cc(Cl)cc(Cl)c2)c1=O)c1ccc2c(c1)OCO2` gave an IC50 of 5000 nM. For `Cc1cc(C)cc([C@H](CC(=O)O)NC(=O)Nc2cccn(Cc3ccccc3Cl)c2=O)c1`, the IC50 was 100 nM. For `Cc1ccc([C@H](CC(=O)O)NC(=O)Nc2cccn(Cc3ccc(C(C)(C)C)cc3)c2=O)cc1`, the IC50 was 6000 nM. `Cc1ccc([C@H](CC(=O)O)NC(=O)Nc2cccn(Cc3ccc(Cl)cc3)c2=O)cc1` was tested, and the IC50 was 2000 nM. In the case of `Cc1ccc([C@H](CC(=O)O)NC(=O)Nc2cccn(Cc3ccc(F)cc3F)c2=O)cc1`, the IC50 is reported as 1300 nM. With `O=C(O)C[C@H](NC(=O)Nc1cccn(Cc2ccccc2Cl)c1=O)c1ccc(O)cc1` [(3S)-3-{[({1-[(2-chlorophenyl)methyl]-2-oxo-1,2-dihydro-3-pyridinyl}amino)carbonyl]amino}-3-(4-hydroxyphenyl)propanoic acid] the IC50 was 100 nM.

Same assay, conditions: Table 5; Ramos cell adhesion to CS1 conjugated ovalbumin; dose required to give 50% inhibition
`CCCc1cn(Cc2ccccc2Cl)c(=O)c(NC(=O)N[C@@H](CC(=O)O)c2ccc(OCC)c(OCC)c2)c1O` [(3S)-3-[({[1-(2-chlorobenzyl)-4-hydroxy-2-oxo-5-propyl-1,2-dihydropyridin-3-yl]amino}carbonyl)amino]-3-(3,4-diethoxyphenyl)propanoic acid] was tested, and the IC50 was 5 nM. In the case of `Cc1ccc([C@H](CC(=O)O)NC(=O)Nc2c(O)ccn(Cc3cccc(Cl)c3)c2=O)cc1`, the IC50 is reported as 15 nM. For `O=C(O)CC(NC(=O)Nc1c(O)ccn(Cc2ccccc2Cl)c1=O)c1ccco1` (centres unmarked), the IC50 was 50 nM. With `Cc1ccc([C@H](CC(=O)O)N(C)C(=O)Nc2c(O)ccn(Cc3ccccc3Cl)c2=O)cc1` the IC50 was 400 nM. `Cc1ccc([C@H](CC(=O)O)NC(=O)Nc2c(O)ccn(Cc3cccc(OC(F)(F)F)c3)c2=O)cc1` was tested, and the IC50 was 45 nM. `Cc1ccc([C@H](CC(=O)O)NC(=O)Nc2c(O)ccn(Cc3c(C)cccc3C)c2=O)cc1` gave an IC50 of 35 nM. Compound `Cc1ccc([C@H](CC(=O)O)NC(=O)Nc2c(NC(=O)NC(C)(C)C)ccn(Cc3ccccc3Cl)c2=O)cc1` [(3S)-3-[({[4-{[(tert-butylamino)carbonyl]amino}-1-(2-chlorobenzyl)-2-oxo-1,2-dihydropyridin-3-yl]amino}carbonyl)amino]-3-(4-methylphenyl)propanoic acid] has an IC50 of 10 nM. With `COc1cc([C@H](CC(=O)O)NC(=O)Nc2c(O)ccn(Cc3ccccc3Cl)c2=O)ccc1C` [(3S)-3-[({[1-(2-chlorobenzyl)-4-hydroxy-2-oxo-1,2-dihydropyridin-3-yl]amino}carbonyl)amino]-3-(3-methoxy-4-methylphenyl)propanoic acid] the IC50 was 3 nM. With `CSc1ccc(Cl)c(Cn2ccc(O)c(NC(=O)N[C@@H](CC(=O)O)c3ccc(C)cc3)c2=O)c1` the IC50 was 15 nM.

Same assay, conditions: Table 6; Ramos cell adhesion to CS1 conjugated ovalbumin, 30 minutes at 37° C.
`CCOc1cccc([C@H](CC(=O)O)NC(=O)Nc2c(O)c(C)c(C)n(Cc3ccccc3Cl)c2=O)c1` showed an IC50 of 30 nM. In the case of `O=C(O)CC(NC(=O)Nc1c(O)ccn(Cc2ccccc2Cl)c1=O)c1cc2ccccc2o1` (centres unmarked), the IC50 is reported as 140 nM. Work on `COc1cc([C@H](CC(=O)O)NC(=O)Nc2c(O)c3ccccc3n(Cc3ccccc3Cl)c2=O)ccc1C` yielded an IC50 of 14 nM. `CCOc1ccc([C@H](CC(=O)O)NC(=O)Nc2c(O)c(C)cn(Cc3c(C)cccc3Cl)c2=O)cc1OCC` showed an IC50 of 3 nM. In the case of `CCOc1cccc([C@H](CC(=O)O)NC(=O)Nc2c(O)c(C3CC3)cn(Cc3ccccc3Cl)c2=O)c1`, the IC50 is reported as 14 nM.

Same assay, conditions: Table 7; Ramos cell adhesion to CS1 conjugated ovalbumin; dose required to give 50% inhibition
With `CCOc1ccc(Cl)c(Cl)c1Cn1c2c(c(O)c(NC(=O)N[C@@H](CC(=O)O)c3ccc(C)cc3)c1=O)CCC2` the IC50 was 5 nM. For `CCn1c2ccccc2c2cc([C@H](CC(=O)O)NC(=O)Nc3c(O)c4c(n(Cc5ccccc5Cl)c3=O)CCC4)ccc21`, the IC50 was 13 nM. In the case of `Cc1cccc([C@H](CC(=O)O)NC(=O)Nc2c(O)c3c(n(Cc4ccccc4Cl)c2=O)CCC3)c1` [(3S)-3-[({[1-(2-chlorobenzyl)-4-hydroxy-2-oxo-2,5,6,7-tetrahydro-1H-cyclopenta[b]pyridin-3-yl]amino}carbonyl)amino]-3-(3-methylphenyl)propanoic acid], the IC50 is reported as 5 nM. `CCCOc1cccc([C@H](CC(=O)O)NC(=O)Nc2c(O)c3c(n(Cc4c(C)cccc4Cl)c2=O)CCC3)c1` gave an IC50 of 12 nM. Compound `CCOc1cccc(Cl)c1Cn1c2c(c(O)c(NC(=O)N[C@@H](CC(=O)O)c3ccc(C)cc3)c1=O)CCC2` has an IC50 of 3 nM. `O=C(O)C[C@H](NC(=O)Nc1c(O)c2c(n(Cc3ccccc3Cl)c1=O)CCC2)c1ccc2c(c1)CCO2` was tested, and the IC50 was 2 nM. `COc1ccn(Cc2ccccc2Cl)c(=O)c1N(C)C(=O)N[C@@H](CC(=O)O)c1ccc(C)cc1` showed an IC50 of 2000 nM. Compound `Cc1cn(Cc2ccccc2Cl)c(=O)c(NC(=O)NC(CC(=O)O)c2cccc(N3CCCCC3)c2)c1O` (centres unmarked) has an IC50 of 22 nM. With `COc1cc([C@H](CC(=O)O)NC(=O)Nc2c(O)c(C)cn(Cc3ccccc3Cl)c2=O)cc(OC)c1C` the IC50 was 12 nM. In the case of `COc1ccc([C@H](CC(=O)O)NC(=O)Nc2c(O)c3c(n(Cc4ccccc4Cl)c2=O)CCC3)cc1F`, the IC50 is reported as 3 nM. `CCOc1cc([C@H](CC(=O)O)NC(=O)Nc2c(O)c3c(n(Cc4ccccc4Cl)c2=O)CCC3)ccc1-c1ccccc1` was tested, and the IC50 was 20 nM. For `CCCOc1ccc(Cl)c(Cn2cc(C)c(O)c(NC(=O)N[C@@H](CC(=O)O)c3ccc(C)cc3)c2=O)c1`, the IC50 was 6 nM. `CS(=O)(=O)Nc1cccc([C@H](CC(=O)O)NC(=O)Nc2c(O)c3c(n(Cc4ccccc4Cl)c2=O)CCC3)c1` [(3S)-3-{[({1-[(2-chlorophenyl)methyl]-4-hydroxy-2-oxo-2,5,6,7-tetrahydro-1H-cyclopenta[b]pyridin-3-yl}amino)carbonyl]amino}-3-{3-[(methylsulfonyl)amino]phenyl}propanoic acid] gave an IC50 of 3 nM. With `Cc1cccc(Cl)c1Cn1c2c(c(O)c(NC(=O)N[C@@H](CC(=O)O)c3cccc(NS(C)(=O)=O)c3)c1=O)CCC2` [(3S)-3-{[({1-[(2-chloro-6-methylphenyl)methyl]-4-hydroxy-2-oxo-2,5,6,7-tetrahydro-1H-cyclopenta[b]pyridin-3-yl}amino)carbonyl]amino}-3-{3-[(methylsulfonyl)amino]phenyl}propanoic acid] the IC50 was 3 nM. `Cc1cccc(-c2ccc([C@H](CC(=O)O)NC(=O)Nc3c(O)ccn(Cc4ccccc4Cl)c3=O)cc2)c1` showed an IC50 of 30 nM. With `CCn1ccc2cc([C@H](CC(=O)O)NC(=O)Nc3c(O)c4c(n(Cc5ccccc5Cl)c3=O)CCC4)ccc21` [(3S)-3-{[({1-[(2-chlorophenyl)methyl]-4-hydroxy-2-oxo-2,5,6,7-tetrahydro-1H-cyclopenta[b]pyridin-3-yl}amino)carbonyl]amino}-3-(1-ethyl-1H-indol-5-yl)propanoic acid] the IC50 was 5 nM. With `CCOc1cccc([C@H](CC(=O)O)NC(=O)Nc2c(O)c(C)cn(Cc3c(Cl)cccc3OCC(C)C)c2=O)c1` the IC50 was 14 nM. `C[C@H](CC(=O)O)NC(=O)Nc1c(O)c2c(n(Cc3ccccc3Cl)c1=O)CCC2` was tested, and the IC50 was 15 nM. Compound `Cc1cccc(-c2cccc([C@H](CC(=O)O)NC(=O)Nc3c(O)c(C)cn(Cc4ccccc4Cl)c3=O)c2)c1` has an IC50 of 18 nM. `Cc1cn(Cc2ccccc2Cl)c(=O)c(NC(=O)NC(CC(=O)O)c2ccc(S(C)(=O)=O)cc2)c1O` (centres unmarked) showed an IC50 of 134 nM.
